Results: PubChem BioAssay AID330 (DTP/NCI, 2004)
Values joined by “and” are separate entries in the source; they are usually repeats but may differ in a detail not shown here. Equal values may be shown once. Inconclusive results and toxic doses are left out. Rule for the calls: active = survival T/C of 150% or more; inactive = T/C below 125% in these data.

Test system: P388 leukemia ip, CD2F1 mice, survival T/C
Test: NCI In Vivo Anticancer Drug Screen. Data for tumor model P388 Leukemia (intraperitoneal) in CD2F1 (CDF1) mice
Settings: endpoint: median survival time, higher = longer survival
Procedure, shortened: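 Mice carrying the transplanted tumor received test compound or vehicle. Survival was recorded in each group, and the value is the treated-group measurement divided by that of the vehicle-treated control group.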

[1] = dose: 100.0 mg/kg/injection, schedule: Q01DX009 (ip), vehicle: saline with Tween-80
[2] = dose: 60.0 mg/kg/injection, schedule: Q01DX005 (ip), vehicle: saline with Tween-80
[3] = dose: 120.0 mg/kg/injection, schedule: Q01DX005 (ip), vehicle: saline with Tween-80
[4] = dose: 240.0 mg/kg/injection, schedule: Q01DX005 (ip), vehicle: saline with Tween-80
[5] = dose: 30.0 mg/kg/injection, schedule: Q01DX005 (ip), vehicle: saline with Tween-80
[6] = dose: 60.0 mg/kg/injection, schedule: Q01DX005 (ip), vehicle: Klucel (hydroxypropylcellulose) (HPC)
[7] = dose: 120.0 mg/kg/injection, schedule: Q01DX005 (ip), vehicle: Klucel (hydroxypropylcellulose) (HPC)
[8] = dose: 50.0 mg/kg/injection, schedule: Q01DX005 (ip), vehicle: Klucel (hydroxypropylcellulose) (HPC)
[9] = dose: 100.0 mg/kg/injection, schedule: Q01DX005 (ip), vehicle: Klucel (hydroxypropylcellulose) (HPC)
[10] = dose: 200.0 mg/kg/injection, schedule: Q01DX005 (ip), vehicle: Klucel (hydroxypropylcellulose) (HPC)
[11] = dose: 100.0 mg/kg/injection, schedule: Q04DX003 (ip), vehicle: saline with Tween-80
[12] = dose: 200.0 mg/kg/injection, schedule: Q04DX003 (ip), vehicle: saline with Tween-80

Measured: T/C

C[CH2][Ge]1([CH2]C)[CH2]CC2(CCN(CCCN(C)C)C2)C[CH2]1
inactive: dose: 0.09 mg/kg/injection, schedule: Q01DX009 (ip), vehicle: saline 103 % of control | dose: 0.19 mg/kg/injection, schedule: Q01DX009 (ip), vehicle: saline 103 % of control and 98 % of control | dose: 0.39 mg/kg/injection, schedule: Q01DX009 (ip), vehicle: saline 101 % of control and 103 % of control | dose: 0.78 mg/kg/injection, schedule: Q01DX009 (ip), vehicle: saline 100 % of control and 104 % of control | dose: 1.56 mg/kg/injection, schedule: Q01DX009 (ip), vehicle: saline 100 % of control and 92 % of control | dose: 3.12 mg/kg/injection, schedule: Q01DX009 (ip), vehicle: saline 104 % of control and 98 % of control | dose: 6.25 mg/kg/injection, schedule: Q01DX009 (ip), vehicle: saline 104 % of control | dose: 6.28 mg/kg/injection, schedule: Q01DX009 (ip), vehicle: water 101 % of control | dose: 12.5 mg/kg/injection, schedule: Q01DX009 (ip), vehicle: saline 101 % of control and 104 % of control | dose: 12.5 mg/kg/injection, schedule: Q01DX009 (ip), vehicle: water 106 % of control | dose: 25.0 mg/kg/injection, schedule: Q01DX009 (ip), vehicle: saline 100 % of control and 105 % of control | dose: 25.0 mg/kg/injection, schedule: Q01DX009 (ip), vehicle: water 107 % of control | dose: 50.0 mg/kg/injection, schedule: Q01DX009 (ip), vehicle: saline 100 % of control and 98 % of control | dose: 50.0 mg/kg/injection, schedule: Q01DX009 (ip), vehicle: water 123 % of control | dose: 75.0 mg/kg/injection, schedule: Q01DX009 (ip), vehicle: saline 103 % of control and 104 % of control

COc1ccc([N+](=O)[O-])cc1Br
inactive: [1] 100 % of control | dose: 200.0 mg/kg/injection, schedule: Q01DX009 (ip), vehicle: saline with Tween-80 100 % of control | dose: 400.0 mg/kg/injection, schedule: Q01DX009 (ip), vehicle: saline with Tween-80 100 % of control

Cc1onc(-c2c(F)cccc2Cl)c1-c1ncc(-c2ccc(Cl)cc2)o1
inactive: [2] 98 % of control | [3] 94 % of control | [4] 99 % of control

CCOC(=O)c1c(C(=O)OC)nc2n1-c1ccccc1OC2
inactive: [5] 97 % of control | [2] 92 % of control and 94 % of control | [3] 93 % of control | [4] 93 % of control

CCOC(=O)CCC(CNC(=O)c1ccccc1)NC(=O)c1ccccc1 (stereo unspecified)
inactive: [2] 98 % of control | [3] 90 % of control | [4] 88 % of control

CC(C)CCCC(C)C1CCC2C3CCC4C5Oc6ccccc6N=C5CCC4(C)C3CCC12C (stereo unspecified)
inactive: [6] 92 % of control | [7] 97 % of control | dose: 240.0 mg/kg/injection, schedule: Q01DX005 (ip), vehicle: Klucel (hydroxypropylcellulose) (HPC) 93 % of control

CNC(=O)OCc1ncn(-c2ccccc2)c1COC(=O)NC
inactive: dose: 12.5 mg/kg/injection, schedule: Q01DX005 (ip), vehicle: distilled water + Tween-80 99 % of control | dose: 25.0 mg/kg/injection, schedule: Q01DX005 (ip), vehicle: distilled water + Tween-80 95 % of control | dose: 50.0 mg/kg/injection, schedule: Q01DX005 (ip), vehicle: distilled water + Tween-80 101 % of control | dose: 100.0 mg/kg/injection, schedule: Q01DX005 (ip), vehicle: distilled water + Tween-80 101 % of control | dose: 200.0 mg/kg/injection, schedule: Q01DX005 (ip), vehicle: distilled water + Tween-80 99 % of control

O=C(C(Br)(Br)Br)C(Br)(Br)c1ccccc1
inactive: dose: 50.0 mg/kg/injection, schedule: Q01DX009 (ip), vehicle: Klucel (hydroxypropylcellulose) (HPC) 101 % of control | dose: 100.0 mg/kg/injection, schedule: Q01DX009 (ip), vehicle: Klucel (hydroxypropylcellulose) (HPC) 101 % of control | dose: 200.0 mg/kg/injection, schedule: Q01DX009 (ip), vehicle: Klucel (hydroxypropylcellulose) (HPC) 99 % of control

CC(S)c1nc2ccccc2[nH]1 (stereo unspecified)
inactive: dose: 100.0 mg/kg/injection, schedule: Q01DX001 (ip), vehicle: Klucel + Tween-80 100 % of control | dose: 200.0 mg/kg/injection, schedule: Q01DX001 (ip), vehicle: Klucel + Tween-80 97 % of control | dose: 400.0 mg/kg/injection, schedule: Q01DX001 (ip), vehicle: Klucel + Tween-80 111 % of control

NC(=O)C(=O)c1cc(Cl)c(Cl)c(Cl)c1Cl
inactive: dose: 25.0 mg/kg/injection, schedule: Q01DX009 (ip), vehicle: saline with Tween-80 105 % of control | dose: 50.0 mg/kg/injection, schedule: Q01DX009 (ip), vehicle: saline with Tween-80 99 % of control | [1] 96 % of control

COc1cc(-c2nn3c(C)c(-c4ccccc4)nc3s2)cc(OC)c1OC
inactive: [2] 101 % of control | [3] 92 % of control | [4] 102 % of control

Nc1c(Cl)ncnc1NCCN1CCOCC1
inactive: [8] 99 % of control | [9] 96 % of control

Cc1noc2c1NC(=O)OCC2
inactive: [8] 101 % of control | [9] 95 % of control | [10] 97 % of control

O=[N+]([O-])c1cc2no[n+]([O-])c2cc1N1CCOCC1
inactive: dose: 3.75 mg/kg/injection, schedule: Q01DX009 (ip), vehicle: saline 112 % of control and 88 % of control | dose: 7.5 mg/kg/injection, schedule: Q01DX009 (ip), vehicle: saline 101 % of control and 92 % of control | dose: 15.0 mg/kg/injection, schedule: Q01DX009 (ip), vehicle: saline 91 % of control and 97 % of control | dose: 30.0 mg/kg/injection, schedule: Q01DX009 (ip), vehicle: saline 103 % of control and 96 % of control

Cn1c(=O)c2[nH]c([N+](=O)[O-])nc2n(C)c1=O
inactive: dose: 100.0 mg/kg/injection, schedule: Q04DX003 (ip), vehicle: saline 96 % of control | dose: 200.0 mg/kg/injection, schedule: Q04DX003 (ip), vehicle: saline 100 % of control | dose: 400.0 mg/kg/injection, schedule: Q04DX003 (ip), vehicle: saline 100 % of control

COc1ccc2c3c([nH]c2c1[N+](=O)[O-])C(C)N(S(=O)(=O)c1ccccc1)CC3 (stereo unspecified)
inactive: dose: 8.5 mg/kg/injection, schedule: Q01DX005 (ip), vehicle: Klucel (hydroxypropylcellulose) (HPC) 95 % of control | dose: 17.0 mg/kg/injection, schedule: Q01DX005 (ip), vehicle: Klucel (hydroxypropylcellulose) (HPC) 97 % of control | dose: 34.0 mg/kg/injection, schedule: Q01DX005 (ip), vehicle: Klucel (hydroxypropylcellulose) (HPC) 104 % of control | dose: 68.0 mg/kg/injection, schedule: Q01DX005 (ip), vehicle: Klucel (hydroxypropylcellulose) (HPC) 95 % of control | dose: 136.0 mg/kg/injection, schedule: Q01DX005 (ip), vehicle: Klucel (hydroxypropylcellulose) (HPC) 89 % of control

O=C1OI(OI2OC(=O)c3ccccc32)c2ccccc21
inactive: dose: 15.0 mg/kg/injection, schedule: Q01DX005 (ip), vehicle: Klucel (hydroxypropylcellulose) (HPC) 102 % of control and 116 % of control | dose: 30.0 mg/kg/injection, schedule: Q01DX005 (ip), vehicle: Klucel (hydroxypropylcellulose) (HPC) 104 % of control and 92 % of control | [6] 100 % of control and 101 % of control and 113 % of control | [7] 101 % of control and 113 % of control

CC(=O)OCC1OC(n2nc(/C=C/c3ccccc3)c(=O)n(-c3ccccc3)c2=S)C(OC(C)=O)C(OC(C)=O)C1OC(C)=O (stereo unspecified)
inactive: [11] 103 % of control | [12] 101 % of control | dose: 400.0 mg/kg/injection, schedule: Q04DX003 (ip), vehicle: saline with Tween-80 110 % of control

COc1ccc(CCNC2Oc3ccc([N+](=O)[O-])cc3-c3nc(C)c(C#N)cc32)cc1OC (stereo unspecified)
inactive: dose: 15.0 mg/kg/injection, schedule: Q01DX005 (ip), vehicle: saline with Tween-80 98 % of control | [5] 98 % of control | [2] 91 % of control and 92 % of control

CNC(=O)Nc1c(C)cccc1C
inactive: dose: 25.0 mg/kg/injection, schedule: Q04DX003 (ip), vehicle: saline with Tween-80 104 % of control | dose: 50.0 mg/kg/injection, schedule: Q04DX003 (ip), vehicle: saline with Tween-80 100 % of control | [11] 105 % of control | [12] 107 % of control

C=CSS/C(=C/N(C=O)Cc1cnc(C)nc1N)CCO
inactive: dose: 25.0 mg/kg/injection, schedule: Q01DX005 (ip), vehicle: Klucel (hydroxypropylcellulose) (HPC) 108 % of control | [8] 108 % of control | [9] 102 % of control | [10] 117 % of control

COc1ccc(Cc2cc3c(cc2OC)OCO3)c(OC)c1
inactive: [2] 100 % of control | [3] 108 % of control | [4] 112 % of control
